Measured values from the NIST ThermoML archive (doi:10.1016/j.jct.2016.03.026).
± gives the expanded uncertainty stated by the source.

Assay: xn = mol fraction of the nth substance listed
Settings: 273.15 K, Fluid (supercritical or subcritical phases), x1 = 0.97; for mass density: Vibrating tube method

O=C=O [carbon dioxide] + CO
Settings	mass density [kg/m3]
8000 kPa	962.72 ± 0.8
8025 kPa	962.8 ± 0.8
8050 kPa	962.97 ± 0.8
8075 kPa	963.13 ± 0.8
8100 kPa	963.21 ± 0.8
8125 kPa	963.38 ± 0.8
8150 kPa	963.54 ± 0.8
8175 kPa	963.7 ± 0.8
8200 kPa	963.78 ± 0.8
8225 kPa	963.95 ± 0.8
8250 kPa	964.11 ± 0.8
8275 kPa	964.23 ± 0.8
8300 kPa	964.35 ± 0.8
8325 kPa	964.52 ± 0.8
8350 kPa	964.68 ± 0.8
8375 kPa	964.76 ± 0.8
8400 kPa	964.93 ± 0.8
8425 kPa	965.04 ± 0.8
8450 kPa	965.19 ± 0.8
8475 kPa	965.34 ± 0.8
8500 kPa	965.5 ± 0.8
8525 kPa	965.6 ± 0.8
8550 kPa	965.74 ± 0.8
8575 kPa	965.91 ± 0.8
8600 kPa	966 ± 0.8
8625 kPa	966.15 ± 0.8
8650 kPa	966.32 ± 0.8
8675 kPa	966.46 ± 0.8
8700 kPa	966.56 ± 0.8
8725 kPa	966.72 ± 0.8
8750 kPa	966.89 ± 0.8
8775 kPa	966.97 ± 0.8
8800 kPa	967.13 ± 0.8
8825 kPa	967.3 ± 0.8
8850 kPa	967.38 ± 0.8
8875 kPa	967.54 ± 0.8
8900 kPa	967.71 ± 0.8
8925 kPa	967.86 ± 0.8
8950 kPa	967.95 ± 0.8
8975 kPa	968.12 ± 0.8
9000 kPa	968.28 ± 0.8
9025 kPa	968.36 ± 0.8
9050 kPa	968.52 ± 0.8
9075 kPa	968.69 ± 0.8
9100 kPa	968.77 ± 0.8
9125 kPa	968.93 ± 0.8
9150 kPa	969.1 ± 0.8
9175 kPa	969.18 ± 0.8
9200 kPa	969.34 ± 0.8
9225 kPa	969.51 ± 0.8
9250 kPa	969.64 ± 0.8
9275 kPa	969.75 ± 0.8
9300 kPa	969.92 ± 0.8
9325 kPa	970 ± 0.8
9350 kPa	970.16 ± 0.8
9375 kPa	970.32 ± 0.8
9400 kPa	970.45 ± 0.8
9425 kPa	970.57 ± 0.8
9450 kPa	970.67 ± 0.8
9475 kPa	970.81 ± 0.8
9500 kPa	970.97 ± 0.8
9525 kPa	971.14 ± 0.8
9550 kPa	971.22 ± 0.8
9575 kPa	971.39 ± 0.8
9600 kPa	971.55 ± 0.8
9625 kPa	971.63 ± 0.8
9650 kPa	971.74 ± 0.8
9675 kPa	971.88 ± 0.8
9700 kPa	972.04 ± 0.8
9725 kPa	972.2 ± 0.8
9750 kPa	972.29 ± 0.8
9775 kPa	972.43 ± 0.8
9800 kPa	972.53 ± 0.8
9825 kPa	972.69 ± 0.8
9850 kPa	972.82 ± 0.8
9875 kPa	972.94 ± 0.8
9900 kPa	973.1 ± 0.8
9925 kPa	973.18 ± 0.8
9950 kPa	973.35 ± 0.8
9975 kPa	973.43 ± 0.8
10000 kPa	973.59 ± 0.8
10025 kPa	973.69 ± 0.8
10050 kPa	973.84 ± 0.8
10075 kPa	973.99 ± 0.8
10100 kPa	974.08 ± 0.8
10125 kPa	974.24 ± 0.8
10150 kPa	974.34 ± 0.8
10175 kPa	974.49 ± 0.8
10200 kPa	974.57 ± 0.8
10225 kPa	974.73 ± 0.8
10250 kPa	974.82 ± 0.8
10275 kPa	974.98 ± 0.8
10300 kPa	975.11 ± 0.8
10325 kPa	975.22 ± 0.8
10350 kPa	975.36 ± 0.8
10375 kPa	975.47 ± 0.8
10400 kPa	975.63 ± 0.8
10425 kPa	975.71 ± 0.8
10450 kPa	975.88 ± 0.8
10475 kPa	975.96 ± 0.8
10500 kPa	976.12 ± 0.8
10525 kPa	976.2 ± 0.8
10550 kPa	976.37 ± 0.8
10575 kPa	976.45 ± 0.8
10600 kPa	976.61 ± 0.8
10625 kPa	976.69 ± 0.8
10650 kPa	976.86 ± 0.8
10675 kPa	976.94 ± 0.8
10700 kPa	977.1 ± 0.8
10725 kPa	977.18 ± 0.8
10750 kPa	977.35 ± 0.8
10775 kPa	977.48 ± 0.8
10800 kPa	977.59 ± 0.8
10825 kPa	977.76 ± 0.8
10850 kPa	977.84 ± 0.8
10875 kPa	978 ± 0.8
10900 kPa	978.08 ± 0.8
10925 kPa	978.2 ± 0.8
10950 kPa	978.33 ± 0.8
10975 kPa	978.49 ± 0.8
11000 kPa	978.57 ± 0.8
11025 kPa	978.7 ± 0.8
11050 kPa	978.82 ± 0.8
11075 kPa	978.97 ± 0.8
11100 kPa	979.06 ± 0.8
11125 kPa	979.16 ± 0.8
11150 kPa	979.3 ± 0.8
11175 kPa	979.46 ± 0.8
11200 kPa	979.55 ± 0.8
11225 kPa	979.71 ± 0.8
11250 kPa	979.8 ± 0.8
11275 kPa	979.94 ± 0.8
11300 kPa	980.04 ± 0.8
11325 kPa	980.16 ± 0.8
11350 kPa	980.29 ± 0.8
11375 kPa	980.39 ± 0.8
11400 kPa	980.53 ± 0.8
11425 kPa	980.69 ± 0.8
11450 kPa	980.78 ± 0.8
11475 kPa	980.89 ± 0.8
11500 kPa	981.02 ± 0.8
11525 kPa	981.13 ± 0.8
11550 kPa	981.26 ± 0.8
11575 kPa	981.37 ± 0.8
11600 kPa	981.51 ± 0.8
11625 kPa	981.62 ± 0.8
11650 kPa	981.75 ± 0.8
11675 kPa	981.86 ± 0.8
11700 kPa	982 ± 0.8
11725 kPa	982.08 ± 0.8
11750 kPa	982.24 ± 0.8
11775 kPa	982.36 ± 0.8
11800 kPa	982.49 ± 0.8
11825 kPa	982.57 ± 0.8
11850 kPa	982.74 ± 0.8
11875 kPa	982.81 ± 0.8
11900 kPa	982.98 ± 0.8
11925 kPa	983.06 ± 0.8
11950 kPa	983.22 ± 0.8
11975 kPa	983.3 ± 0.8
12000 kPa	983.47 ± 0.8
12025 kPa	983.55 ± 0.8
12050 kPa	983.69 ± 0.8
12075 kPa	983.79 ± 0.8
12100 kPa	983.94 ± 0.8
12125 kPa	984.04 ± 0.8
12150 kPa	984.12 ± 0.8
12175 kPa	984.29 ± 0.8
12200 kPa	984.37 ± 0.8
12225 kPa	984.53 ± 0.8
12250 kPa	984.61 ± 0.8
12275 kPa	984.74 ± 0.8
12300 kPa	984.86 ± 0.8
12325 kPa	984.94 ± 0.8
12350 kPa	985.1 ± 0.8
12375 kPa	985.18 ± 0.8
12400 kPa	985.35 ± 0.8
12425 kPa	985.43 ± 0.8
12450 kPa	985.59 ± 0.8
12475 kPa	985.67 ± 0.8
12500 kPa	985.78 ± 0.8
12525 kPa	985.92 ± 0.8
12550 kPa	986 ± 0.8
12575 kPa	986.16 ± 0.8
12600 kPa	986.24 ± 0.8
12625 kPa	986.39 ± 0.8
12650 kPa	986.49 ± 0.8
12675 kPa	986.57 ± 0.8
12700 kPa	986.65 ± 0.8
12725 kPa	986.81 ± 0.8
12750 kPa	986.89 ± 0.8
12775 kPa	987.06 ± 0.8
12800 kPa	987.14 ± 0.8
12825 kPa	987.27 ± 0.8
12850 kPa	987.38 ± 0.8
12875 kPa	987.47 ± 0.8
12900 kPa	987.63 ± 0.8
12925 kPa	987.71 ± 0.8
12950 kPa	987.8 ± 0.8
12975 kPa	987.96 ± 0.8
13000 kPa	988.04 ± 0.8
13025 kPa	988.15 ± 0.8
13050 kPa	988.28 ± 0.8
13075 kPa	988.39 ± 0.8
13100 kPa	988.53 ± 0.8
13125 kPa	988.61 ± 0.8
13150 kPa	988.76 ± 0.8
13175 kPa	988.85 ± 0.8
13200 kPa	988.93 ± 0.8
13225 kPa	989.1 ± 0.8
13250 kPa	989.18 ± 0.8
13275 kPa	989.28 ± 0.8
13300 kPa	989.42 ± 0.8
13325 kPa	989.5 ± 0.8
13350 kPa	989.67 ± 0.8
13375 kPa	989.75 ± 0.8
13400 kPa	989.83 ± 0.8
13425 kPa	989.98 ± 0.8
13450 kPa	990.07 ± 0.8
13475 kPa	990.16 ± 0.8
13500 kPa	990.32 ± 0.8
13525 kPa	990.4 ± 0.8
13550 kPa	990.48 ± 0.8
13575 kPa	990.65 ± 0.8
13600 kPa	990.73 ± 0.8
13625 kPa	990.86 ± 0.8
13650 kPa	990.97 ± 0.8
13675 kPa	991.05 ± 0.8
13700 kPa	991.22 ± 0.8
13725 kPa	991.3 ± 0.8
13750 kPa	991.4 ± 0.8
13775 kPa	991.51 ± 0.8
13800 kPa	991.62 ± 0.8
13825 kPa	991.75 ± 0.8
13850 kPa	991.87 ± 0.8
13875 kPa	991.95 ± 0.8
13900 kPa	992.09 ± 0.8
13925 kPa	992.19 ± 0.8
13950 kPa	992.27 ± 0.8
13975 kPa	992.38 ± 0.8
14000 kPa	992.52 ± 0.8
14025 kPa	992.6 ± 0.8

Settings	speed of sound [m/s]
10000 kPa, Frequency=5 MHz, Pulse-echo method	634.7 ± 1
